Data on five molecules can be found in ChEMBL document CHEMBL5346877, “A-ring-fused pyrazoles of dihydrotestosterone targeting prostate cancer cells via the downregulation of the androgen receptor” (Eur J Med Chem, 2023).

The source made the active and inactive calls. The rule behind the calls is not given here.

The test system of one experiment is LAPC4. The experiment is described as follows: Cytotoxicity against human LAPC4 cells assessed as cell viability at 20 uM incubated for 72 hrs by resazurin dye based microplate reader assay. In kind it is functional. Particulars: read-out: Activity. A general note: The colour change of resazurin is a common sign of viable cells or microbes.
On to `C[C@]12Cc3c(nn(-c4ccccc4)c3-c3ccc(O)cc3)C[C@@H]1CC[C@@H]1[C@@H]2CC[C@]2(C)[C@@H](O)CC[C@@H]12`, for which the viability at 20 µM turned out to be 63%.
The same measure, in the same setting: with `C[C@]12Cc3cnn(-c4ccc(Cl)cc4)c3C[C@@H]1CC[C@@H]1[C@@H]2CC[C@]2(C)[C@@H](O)CC[C@@H]12` the figure was 49%.
Take `C[C@]12Cc3cn(-c4ccc(Br)cc4)nc3C[C@@H]1CC[C@@H]1[C@@H]2CC[C@]2(C)[C@@H](O)CC[C@@H]12`: the viability at 20 µM amounted to 79%.
Same read-out and setting: with `Cn1nc2c(c1-c1ccco1)C[C@@]1(C)[C@@H](CC[C@@H]3[C@@H]1CC[C@]1(C)C(=O)CC[C@@H]31)C2` the figure was 39%; with `COc1ccc(-n2cc3c(n2)C[C@@H]2CC[C@@H]4[C@H](CC[C@]5(C)[C@@H](O)CC[C@@H]45)[C@@]2(C)C3)cc1`, 99%.

For a further experiment, the system named is LAPC4. The experiment is described as follows: Downregulation of PSA protein expression in human LAPC4 cells at 10 uM incubated for 24 hrs by immunoblotting analysis. The format is functional, cell-based.
Settings: not given
Background: In western blotting, separated proteins are transferred to a membrane and probed.
As to `C[C@]12Cc3c(nn(-c4ccccc4)c3-c3ccc(O)cc3)C[C@@H]1CC[C@@H]1[C@@H]2CC[C@]2(C)[C@@H](O)CC[C@@H]12`, the result was inactive.
In the case of `C[C@]12Cc3cnn(-c4ccc(Cl)cc4)c3C[C@@H]1CC[C@@H]1[C@@H]2CC[C@]2(C)[C@@H](O)CC[C@@H]12`, the result was Active.
In the case of `C[C@]12Cc3cn(-c4ccc(Br)cc4)nc3C[C@@H]1CC[C@@H]1[C@@H]2CC[C@]2(C)[C@@H](O)CC[C@@H]12`, the result was inactive.
Regarding `COc1ccc(-n2cc3c(n2)C[C@@H]2CC[C@@H]4[C@H](CC[C@]5(C)[C@@H](O)CC[C@@H]45)[C@@]2(C)C3)cc1`, the result was inactive.

The test system of another experiment is CWR22R. The experiment is described as follows: Cytotoxicity against human 22Rv1 cells assessed as cell viability at 20 uM incubated for 72 hrs by resazurin dye based microplate reader assay. In kind it is functional. The note with it: read-out: Activity.
Consider `C[C@]12Cc3c(nn(-c4ccccc4)c3-c3ccc(O)cc3)C[C@@H]1CC[C@@H]1[C@@H]2CC[C@]2(C)[C@@H](O)CC[C@@H]12`, for which the viability at 20 µM was 37%.
With `C[C@]12Cc3cnn(-c4ccc(Cl)cc4)c3C[C@@H]1CC[C@@H]1[C@@H]2CC[C@]2(C)[C@@H](O)CC[C@@H]12`, the viability at 20 µM worked out at 80%.
On the same count and under the same terms, with `C[C@]12Cc3cn(-c4ccc(Br)cc4)nc3C[C@@H]1CC[C@@H]1[C@@H]2CC[C@]2(C)[C@@H](O)CC[C@@H]12` the figure was 83%; with `Cn1nc2c(c1-c1ccco1)C[C@@]1(C)[C@@H](CC[C@@H]3[C@@H]1CC[C@]1(C)C(=O)CC[C@@H]31)C2`, 43%.
For `COc1ccc(-n2cc3c(n2)C[C@@H]2CC[C@@H]4[C@H](CC[C@]5(C)[C@@H](O)CC[C@@H]45)[C@@]2(C)C3)cc1`, the viability at 20 µM is at least 100%.

Another experiment deals with LAPC4. As to the kind of experiment: Downregulation of Nkx3.1 protein expression in human LAPC4 cells at 10 uM incubated for 24 hrs by immunoblotting analysis.
Settings: not given
In kind it is functional, cell-based.
For `C[C@]12Cc3c(nn(-c4ccccc4)c3-c3ccc(O)cc3)C[C@@H]1CC[C@@H]1[C@@H]2CC[C@]2(C)[C@@H](O)CC[C@@H]12`, the outcome was inactive.
For the molecule `C[C@]12Cc3cnn(-c4ccc(Cl)cc4)c3C[C@@H]1CC[C@@H]1[C@@H]2CC[C@]2(C)[C@@H](O)CC[C@@H]12`, the outcome was Active.
For `C[C@]12Cc3cn(-c4ccc(Br)cc4)nc3C[C@@H]1CC[C@@H]1[C@@H]2CC[C@]2(C)[C@@H](O)CC[C@@H]12`, the result was inactive.
With `COc1ccc(-n2cc3c(n2)C[C@@H]2CC[C@@H]4[C@H](CC[C@]5(C)[C@@H](O)CC[C@@H]45)[C@@]2(C)C3)cc1`, the outcome was inactive.

The test system of a further experiment is LAPC4. As to the kind of experiment: Inhibition of colony formation in human LAPC4 cells at 5 uM incubated for 10 days by crystal violet staining based assay. In kind it is functional, cell-based. The note with it: time 10.0 day.
By inhibition is commonly meant the change of the read-out against control, counted positive when it falls. `Cn1nc2c(c1-c1ccco1)C[C@@]1(C)[C@@H](CC[C@@H]3[C@@H]1CC[C@]1(C)C(=O)CC[C@@H]31)C2`: the inhibition entry was “Active”.

Test system in another experiment: not listed separately
As to the kind of experiment: Downregulation of AR protein expression in human LAPC4 cells assessed as AR levels at 10 uM incubated for 24 hrs by immunoblotting analysis.
Settings: not given
The format is functional.
For the molecule `C[C@]12Cc3c(nn(-c4ccccc4)c3-c3ccc(O)cc3)C[C@@H]1CC[C@@H]1[C@@H]2CC[C@]2(C)[C@@H](O)CC[C@@H]12`, the Activity entry was “>=100%”.
Same read-out and setting: with `C[C@]12Cc3cnn(-c4ccc(Cl)cc4)c3C[C@@H]1CC[C@@H]1[C@@H]2CC[C@]2(C)[C@@H](O)CC[C@@H]12` the entry was “>=100%”.
Consider `C[C@]12Cc3cn(-c4ccc(Br)cc4)nc3C[C@@H]1CC[C@@H]1[C@@H]2CC[C@]2(C)[C@@H](O)CC[C@@H]12`, for which the Activity entry is recorded as “>=100%”.
As for `Cn1nc2c(c1-c1ccco1)C[C@@]1(C)[C@@H](CC[C@@H]3[C@@H]1CC[C@]1(C)C(=O)CC[C@@H]31)C2`, the Activity was 97%.
Same read-out and setting: with `COc1ccc(-n2cc3c(n2)C[C@@H]2CC[C@@H]4[C@H](CC[C@]5(C)[C@@H](O)CC[C@@H]45)[C@@]2(C)C3)cc1` the entry was “>=100%”.

For a further experiment, the system named is DU-145. As to the kind of experiment: Cytotoxicity against human DU-145 cells assessed as cell viability at 20 uM incubated for 72 hrs by resazurin dye based microplate reader assay. In kind it is functional. Particulars: read-out: Activity.
On to `C[C@]12Cc3c(nn(-c4ccccc4)c3-c3ccc(O)cc3)C[C@@H]1CC[C@@H]1[C@@H]2CC[C@]2(C)[C@@H](O)CC[C@@H]12`, for which the viability at 20 µM came to 57%.
Turning to `C[C@]12Cc3cnn(-c4ccc(Cl)cc4)c3C[C@@H]1CC[C@@H]1[C@@H]2CC[C@]2(C)[C@@H](O)CC[C@@H]12`, the viability at 20 µM came to 91%.
In the case of `C[C@]12Cc3cn(-c4ccc(Br)cc4)nc3C[C@@H]1CC[C@@H]1[C@@H]2CC[C@]2(C)[C@@H](O)CC[C@@H]12`, the viability at 20 µM is at least 100%.
Consider `Cn1nc2c(c1-c1ccco1)C[C@@]1(C)[C@@H](CC[C@@H]3[C@@H]1CC[C@]1(C)C(=O)CC[C@@H]31)C2`, for which the viability at 20 µM worked out at 100%.
Same read-out and setting: under `COc1ccc(-n2cc3c(n2)C[C@@H]2CC[C@@H]4[C@H](CC[C@]5(C)[C@@H](O)CC[C@@H]45)[C@@]2(C)C3)cc1` stands at least 100%.

The subject of the next experiment is LAPC4. The experiment is described as follows: Inhibition of colony formation in human LAPC4 cells at 10 uM incubated for 10 days by crystal violet staining based assay. The format is functional. The note with it: LAPC4, 240 h, time 10 day.
As for `C[C@]12Cc3c(nn(-c4ccccc4)c3-c3ccc(O)cc3)C[C@@H]1CC[C@@H]1[C@@H]2CC[C@]2(C)[C@@H](O)CC[C@@H]12`, the inhibition at 10 µM came out at 22%.
On to `C[C@]12Cc3cnn(-c4ccc(Cl)cc4)c3C[C@@H]1CC[C@@H]1[C@@H]2CC[C@]2(C)[C@@H](O)CC[C@@H]12`, for which 10 µM produced 0% inhibition.
With `C[C@]12Cc3cn(-c4ccc(Br)cc4)nc3C[C@@H]1CC[C@@H]1[C@@H]2CC[C@]2(C)[C@@H](O)CC[C@@H]12`, the inhibition at 10 µM came to 24%.
On the same count and under the same terms, with `Cn1nc2c(c1-c1ccco1)C[C@@]1(C)[C@@H](CC[C@@H]3[C@@H]1CC[C@]1(C)C(=O)CC[C@@H]31)C2` the figure was 5%.
In turn, `COc1ccc(-n2cc3c(n2)C[C@@H]2CC[C@@H]4[C@H](CC[C@]5(C)[C@@H](O)CC[C@@H]45)[C@@]2(C)C3)cc1` showed an inhibition at 10 µM of 65%.
